One data set deals with T1, EDG-6 (Homo sapiens, UniProt O95977).
T1 construct: expressed in transfected cells; host or cells: EDG-6-overexpressing cells
T1 sequence (O95977 1-384): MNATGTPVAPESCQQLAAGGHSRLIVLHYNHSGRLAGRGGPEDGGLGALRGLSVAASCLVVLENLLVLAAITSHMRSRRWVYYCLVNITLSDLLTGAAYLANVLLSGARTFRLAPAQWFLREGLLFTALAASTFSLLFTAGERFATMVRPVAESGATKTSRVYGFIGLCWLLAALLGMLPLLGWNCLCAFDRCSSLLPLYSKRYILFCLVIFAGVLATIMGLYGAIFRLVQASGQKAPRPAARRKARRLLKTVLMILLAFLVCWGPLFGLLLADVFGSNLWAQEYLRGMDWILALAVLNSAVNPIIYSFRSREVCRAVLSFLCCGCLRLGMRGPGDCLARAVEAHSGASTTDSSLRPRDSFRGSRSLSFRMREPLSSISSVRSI
Description: Inhibitory activity on binding of [3H]-S1P to EDG-6 (EDG-6-overexpressing cells). The settings on record: competitive binding test, 5 nM D-erythro-sphingosine-3-[3H]-1-phosphate, 60 minutes on ice. As to the method:
Firstly, EDG-6-overexpressing cells were seeded at a density of 2×10^5 cells/well into a 12-well plate. After 12 hours, the cells were washed with 0.5 mL of an assay buffer twice. In a saturation binding test for determining the KD value and the Bmax value, the cells were incubated in 0.4 mL of an assay buffer containing D-erythro-sphingosine-3-[^3H]-1-phosphate at various concentrations and 2 μL of 0.01 N NaOH for 60 minutes on ice. Then, the wells were washed with 0.8 mL of the assay buffer twice and the whole cells were disrupted by adding 0.1 mL of 0.5% TCA (trichloroacetic acid), 0.4 mL of a lysis buffer (2% Na2CO3, 4% NaOH, 0.1% SDS) and 0.1 mL of 1 N hydrochloric acid. Then, 0.5 mL of the lysed solution was collected in a glass vial (Packard) with a pipette. After adding 7 mL of ACSII (Amersham), the mixture was thoroughly stirred and the radioactivity was measured with a liquid scintillation counter (TRI-CARB 2900TR Packard), thereby determining the KD value. The value of the nonspecific binding was determined by adding unlabeled S1P at a final concentration of 25 μM as a substitute for 0.01 N NaOH. […] The subsequent procedures following washing were carried out as in the saturation binding test and the radioactivity was measured as described above.

A further data set addresses Human EDG-1 (Homo sapiens, UniProt P21453). Description: Agonistic activity against EDG by monitoring intracellular calcium ion concentration [Ca2+]i. The data set is classed as cell-based. Conditions: human EDG-1 overexpressing CHO cells, increase ratio of [Ca2+]i. As to the method: Human EDG-1, EDG-3, EDG-5 or EDG-8 gene overexpressing Chinese Hamster Ovary (CHO) cells were cultured in Ham's F12 medium (manufactured by GIBCO BRL) containing 10% FBS (fetal bovine serum), penicillin/streptomycin and blasticidin (5 μg/ml). The cultured cells were incubated in a 5 μM Fura2-AM solution (Ham's F12 medium containing 10% of FBS, 20 mM HEPES buffer (pH7.4) and 2.5 mM probenecid) at 37° C. for 60 minutes. After washing once with Hanks solution containing […] buffer (pH7.4) and 2.5 mM probenecid, the plate was soaked in the same solution until assay. Then, the plate was set on a fluorescent drug screening system (FDSS 6000; Hamamatsu Photonics) and the intracellular calcium ion concentration was measured without stimulation for 30 seconds. A test compound (final concentration: 1 nM to 10 μM, dimethylsulfoxide (DMSO) solution) was added and S1P (final concentration: 100 nM) was added 5 minutes thereafter. Then, the increase in the intracellular calcium ion concentration was measured before and after the addition of S1P at intervals of 3 seconds (excitation wavelength: 340 nm and 380 nm, fluorescence wavelength: 500 nm). […]
(In general: A change in cytosolic calcium serves as a functional read-out for many receptors and channels.)

In another data set the test system is lymphocyte in blood. Description: Counting the number of lymphocyte in blood (1). The data set is classed as in vivo, male Sprague-Dawley rats. The settings on record: oral, 10, 30 and 100 mg/kg, 4 hours after the administration, rat. On the procedure: Test compounds were orally administered to male Sprague-Dawley rats (Charles Riber Laboratories, Japan, Ltd., 6-week-old at using). Four to 72 hours after the administration, the blood was collected from the aorta abdominalis under ether anesthesia. Using a portion of the thus collected blood, the number of blood cells were counted and the number of lymphocyte, neutrophil and platelet were counted. Each group had 4 or 5 animals.

For data set [1] the following is noted: cited from earlier work.
The conditions of data set [2]: after administration; cited from earlier work.
The subject of another data set is S1P receptor. Conditions: cited from earlier work.

Structures are written as SMILES.

Sequence of Human EDG-1 (P21453 whole entry): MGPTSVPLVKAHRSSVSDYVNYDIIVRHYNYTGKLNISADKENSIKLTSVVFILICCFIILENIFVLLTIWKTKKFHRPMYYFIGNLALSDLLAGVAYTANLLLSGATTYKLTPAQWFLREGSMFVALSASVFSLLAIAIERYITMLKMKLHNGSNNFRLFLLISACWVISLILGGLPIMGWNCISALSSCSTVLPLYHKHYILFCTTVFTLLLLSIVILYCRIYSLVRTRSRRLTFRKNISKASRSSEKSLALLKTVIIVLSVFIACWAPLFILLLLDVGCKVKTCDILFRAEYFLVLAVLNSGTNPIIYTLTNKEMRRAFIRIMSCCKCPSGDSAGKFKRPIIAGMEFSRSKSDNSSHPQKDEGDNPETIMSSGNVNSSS

For orientation: melting point means the temperature, or range, at which the solid turns liquid. In turn, `CC1=C(CNCCC(=O)O)CCc2cc(OCCCCc3ccccc3)ccc21.Cl` displayed a melting point of 162.5 to 163.3 °C.

`CC1=C(CN2CC(C(=O)O)C2)CCc2cc(OCCC(c3ccccc3)c3ccccc3)ccc21.Cl` had a melting point of 77 to 83 °C.

As for `CC1=C(CN2CC(C(=O)O)C2)CCc2cc(OCC(C)(C)Cc3ccccc3)ccc21.Cl`, the melting point is 124 to 127 °C.

A word on the Ki: it is the equilibrium dissociation constant of an inhibitor or competing ligand from its target. Lower therefore signals a stronger hold on the target. In general, EC50 refers to the concentration at which the effect is half-maximal. At EDG-6, `O=C(O)CCNCCCc1ccc(OCCCCCc2ccccc2)cc1` [3-[3-(4-(5-phenylpentyloxy)phenyl)propylamino]propanoic acid] gave an inhibitory constant (Ki) of 352 nM. Besides, the EC50 at Human EDG-1 stood at 255 nM. In addition, the “number of lymphocyte in blood” value in the data set with lymphocyte in blood is “concentration-dependently lowered the number of lymphocyte in blood”.

On to `CCCCCCCCc1ccc(CCC(N)(CO)CO)cc1.Cl` [FTY720, 2-amino-2-[2-(4-octylphenyl)ethyl]-1,3-propanediol hydrochloride], for which, in data set [1] (human kidney transplantation), the “incidence rate of acute rejection” value is “significantly lowering the incidence rate of acute rejection”. Also, the “lymphocyte count in the peripheral blood” value in data set [1] (human, in vivo) is “reducing the lymphocyte count in the peripheral blood”. Also, the “side effect (bradycardia)” value in data set [2] is listed as “causing bradycardia after administration”.

As for `CCCCCCCCc1ccc(CCC(N)(CO)COP(=O)(O)O)cc1` (stereo not shown) [phosphorylated FTY720], the “binding to S1P receptor subtypes” value in the data set on S1P receptor was “binds to multiple subtypes of the S1P receptors, i.e., EDG-1, EDG-3, EDG-6 and EDG-8”.

These data come from patent publication US8791159B2, “Compound capable of binding S1P receptor and pharmaceutical use thereof” (Ono Pharmaceutical Co., Ltd., priority 2003, dated 2014).
